Measurements: US9732046B2, “Substituted 1,2,4-triazines as tubulin inhibitors” (YM Biosciences Australia Pty Ltd., priority 2003, dated 2017)

Key:
Format in all cases: cell-based
[1] = target: T1, TelJak3 (BaF3 TELJAK cells, TEL/JAK3 fusion) (Homo sapiens, UniProt P52333); assay: Cellular growth inhibition assay (MTT), BaF3 TEL:JAK3 cell line; conditions: Table 1, 40 hr incubation
T1 construct: For JAK3 Sa1 I/Not I cleaved kinase domain PCR product was ligated with BamH I/Sa1 I cleaved TELproduct; expressed in transfected cells; host or cells: BaF3 cells bearing the pTET-off plasmid, transfected with pTELJAK3 (pTRE2 vector); the other entry of the earlier key: ETV6 (P41212, Transcription factor ETV6)
Method: (§1) For screening purposes, compounds were diluted in 96 well plates at a concentration of 20 μM. Plates were warmed at 37° C. for 30 minutes before assay.
(§2) The coding region encompassing nucleotides 1-487 of TEL was amplified by PCR using the oligonucleotides 5TEL (5′-GGAGGATCCTGATCTCTCTCGCTGTGAGAC-3′) (SEQ ID NO: 1) and 3TEL (5′-AGGC GTCGACTTCTTCTTGATGGTTCTG-3′) (SEQ ID NO: 2) and U937 mRNA as template. A BamH I site was incorporated into the 5TEL primer, and a Sal I site was incorporated into the 3TEL primer. The regions encompassing the kinase domain of JAK2 (nucleotides 2994-3914; JAK2F 5′-ACGC GTCGACGGTGCCTTTGAAGACCGGGAT-3 (SEQ ID NO: 3); JAK2R 5′-ATAGTTTAGCGGCCGCTCAGAATGAAGGTCATTT-3′) (SEQ ID NO: 4) and JAK3 (nucleotides 2520-3469; JAK3F 5′-GAAGTCGACTATGCCTGCCAAGACCCCACGATCTT-3′ (SEQ ID NO: 5); JAK3R 5′-GGATCTAGACTATGAAAAGGACAGGGAGTGGTGTTT-3′ (SEQ ID NO: 6)) were generated by PCR using Taq DNA polymerase (Gibco/BRL) and U937 mRNA as template. A Sal I site was incorporated into the forward primer of JAK2 and JAK3, a Not I site was incorporated into the JAK2 reverse primer and a Xba I site was added to the reverse primer of JAK3.
(§3) A TEL/Jak2 fusion was generated by digestion of the TELPCR product with BamH I/Sa1 I, digestion of the JAK2 PCR product with Sa1 I/Not I followed by ligation and subcloning into the mammalian expression Vector pTRE 2 (Clontech) digested with BamH I-Not I (pTELJAK2). For JAK3 Sa1 I/Not I cleaved kinase domain PCR product was ligated with BamH I/Sa1 I cleaved TELproduct followed by ligation into BamH I/Not I cleaved pTRE2 (pTELJAK3).
(§4) The growth factor dependent myelomonocytic cell line BaF3 bearing the pTET-off plasmid (Clontech) was transfected with either pTELJAK2 or pTELJAK3 and the cells selected for factor independent growth. BaF 3 wild type cells were cultured in DMEM 10% FCS, 10% WEHI 3B conditioned medium. BaF3 TELJAK cells were cultured in DMEM 10% Tet-System Approved FBS (without WEHI 3B conditioned medium).
(§5) Cell suspensions were prepared by harvesting cells from culture. (Cells used in this test should be in later log phase growth and high viability.) Cells were diluted in correct growth medium to 1.1× final concentration (from 50000 cell/mL to 200,000 cell/mL, depending on cell line).
(§6) Compounds to be tested were added (10 μL, 10× final concentration) to a flat bottom 96-well plate. The cellular suspension (90 μL per well) was added, and the plate incubated for 40 hr at 37° C., 5% CO2. MTT (20 μL per well, 5 mg/mL in PBS) was added and the plates were returned to the incubator for a further 6 hours. Lysis buffer (100 μL per well, 10% SDS, 0.01N HCl) was added and the plate stored in the incubator overnight. The plate was then read at 590 nm.

PC3 (Prostate Cancer) = assay: Cellular growth inhibition assay (MTT), PC3; conditions: Table 1, 40 hr incubation
Method: as §1
(§7) K562 (Chronic Myeloid Leukemia), PC3 (Prostate Cancer), and DU145 (Prostate Cancer) were obtained from the American Type Culture Collection (ATCC). K562 was grown in RPMI, with 10% FBS with Glutamx added. DU145 cells were cultured in DMED, with 10% FBS and Glutamx and MEM non-essential amino acids added. PC3 cells were grown in F12K medium, with 10% FBS and Glutamx and MEM non-essential amino acids added. All cells were grown at 37° C. in 5% CO2.
as §5, §6

[2] = target: T2, TelJak2 (BaF3 TELJAK cells, TEL/Jak2 fusion) (Homo sapiens, UniProt O60674); assay: Cellular growth inhibition assay (MTT), BaF3 TEL:JAK2 cell line; conditions: Table 1, 40 hr incubation
T2 construct: The regions encompassing the kinase domain of JAK2 (nucleotides 2994-3914); expressed in transfected cells; host or cells: BaF3 cells bearing the pTET-off plasmid, transfected with pTELJAK2 (pTRE2 vector); the other entry of the earlier key: ETV6 (P41212, Transcription factor ETV6)
Method: as §1, §2, §3, §4, §5, §6

[3] = test system: K562 (Chronic Myeloid Leukemia); assay: Cellular growth inhibition assay (MTT), K562; conditions: Homo sapiens, Table 1, 40 hr incubation
Method: as §1, §7, §5, §6

DU145 (Prostate Cancer) = assay: Cellular growth inhibition assay (MTT), DU145; conditions: Homo sapiens, DU-145, Table 1, 40 hr incubation
Method: as §1, §7, §5, §6

T2 sequence (O60674 with tags, fused parts or gaps): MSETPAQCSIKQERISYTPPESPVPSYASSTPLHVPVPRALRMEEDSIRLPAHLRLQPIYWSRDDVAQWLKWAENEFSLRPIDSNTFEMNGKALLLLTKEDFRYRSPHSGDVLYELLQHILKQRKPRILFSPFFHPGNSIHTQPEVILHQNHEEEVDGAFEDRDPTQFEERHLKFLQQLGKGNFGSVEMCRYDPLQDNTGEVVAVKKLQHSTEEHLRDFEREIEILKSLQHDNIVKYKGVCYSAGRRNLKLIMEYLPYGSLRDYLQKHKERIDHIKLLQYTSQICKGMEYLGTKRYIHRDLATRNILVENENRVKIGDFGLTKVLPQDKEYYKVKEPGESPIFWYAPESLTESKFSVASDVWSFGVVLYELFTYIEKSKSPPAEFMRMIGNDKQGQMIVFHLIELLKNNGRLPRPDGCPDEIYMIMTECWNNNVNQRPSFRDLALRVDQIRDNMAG
T1 sequence (P52333 with tags, fused parts or gaps): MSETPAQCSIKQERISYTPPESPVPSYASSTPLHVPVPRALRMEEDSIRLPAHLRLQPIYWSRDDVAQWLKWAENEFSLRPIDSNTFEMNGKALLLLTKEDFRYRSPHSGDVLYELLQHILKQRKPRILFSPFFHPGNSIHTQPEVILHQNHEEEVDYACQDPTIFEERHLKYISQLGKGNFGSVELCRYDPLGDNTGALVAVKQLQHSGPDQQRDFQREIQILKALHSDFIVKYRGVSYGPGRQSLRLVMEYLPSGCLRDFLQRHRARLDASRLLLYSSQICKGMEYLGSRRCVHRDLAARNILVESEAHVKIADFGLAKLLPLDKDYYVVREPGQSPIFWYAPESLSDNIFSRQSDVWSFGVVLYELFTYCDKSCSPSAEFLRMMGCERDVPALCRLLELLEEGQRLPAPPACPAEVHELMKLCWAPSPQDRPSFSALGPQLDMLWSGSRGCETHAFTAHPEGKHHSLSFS

| SMILES | inhibition at 20 µM [1] | inhibition at 20 µM (PC3 (Prostate Cancer)) | inhibition at 20 µM [2] | inhibition at 20 µM [3] | inhibition at 20 µM (DU145 (Prostate Cancer)) |
| --- | --- | --- | --- | --- | --- |
| CCCC(Nc1cncc(-c2ccc(OCCCN3CCOCC3)c(OC)c2)n1)c1ccccc1 (stereo not drawn) | > 50% | > 50% | > 50% | > 50% | < 50% |
| CCCC(Nc1nnc(C)c(-c2cc(OC)c(OC)c(OC)c2)n1)c1ccccc1 (stereo not drawn) | > 50% | < 50% | > 50% | > 50% | < 50% |
| COc1cc(-c2nc(N[C@H](C)c3ccccc3)nnc2C)ccc1O | > 50% | < 50% | > 50% | > 50% | < 50% |
| CCCC(Nc1cncc(-c2ccc(NC(=O)NCC)cc2)n1)c1cccnc1 (stereo not drawn) | > 50% | < 50% | > 50% | > 50% | < 50% |
| CCCC(Nc1cncc(-c2ccc(NC(=O)c3cccnc3)c(OC)c2)n1)c1cccnc1 (stereo not drawn) | > 50% | < 50% | > 50% | > 50% | < 50% |
| CCCC(Nc1cncc(-c2ccc(C(=O)NCCCN3CCOCC3)cc2)n1)c1ccccc1 (stereo not drawn) | > 50% | < 50% | > 50% | < 50% | < 50% |
| CCNC(=O)Nc1ccc(-c2cncc(NC(C)c3cccnc3)n2)cc1OC (stereo not drawn) | > 50% | < 50% | > 50% |  |  |
| CCCC(Nc1cncc(-c2ccc(C(=O)N3CCN(C)CC3)cc2)n1)c1ccccc1 (stereo not drawn) | > 50% | < 50% | > 50% | < 50% |  |
| CCCC(Nc1cncc(-c2ccc(CN3CCC(O)CC3)cc2)n1)c1ccccc1 (stereo not drawn) | > 50% | < 50% | > 50% | > 50% | < 50% |
| CCC[C@H](Nc1cncc(-c2ccc(NC(=O)CN(C)C)c(OC)c2)n1)c1cccnc1 | > 50% | > 50% | > 50% | > 50% | > 50% |
| CCCC(Nc1cncc(-c2ccc(C(=O)NCCCN(CC)CC)cc2)n1)c1ccccc1 (stereo not drawn) | > 50% | < 50% | > 50% | > 50% | > 50% |
| CCCC(Nc1cncc(-c2ccc(OCCCCN3CCOCC3)c(OC)c2)n1)c1ccccc1 (stereo not drawn) | > 50% | < 50% | > 50% | > 50% | < 50% |
| CCCC(Nc1cncc(-c2ccc(NC(=O)N3CCN(C)CC3)c(OC)c2)n1)c1cccnc1 (stereo not drawn) | > 50% | > 50% | > 50% | < 50% | < 50% |
| CCCC(Nc1cncc(-c2ccc(NC(=O)NCCCN(CC)CC)c(OC)c2)n1)c1cccnc1 (stereo not drawn) | > 50% | < 50% | > 50% | < 50% | < 50% |
| CCCC(Nc1cncc(-c2ccc(C(=O)N3CCOCC3)cc2)n1)c1ccccc1 (stereo not drawn) | > 50% | < 50% | > 50% | < 50% |  |
| CCCC(Nc1cncc(-c2ccc(CO)c(OC)c2)n1)c1cccnc1 (stereo not drawn) | > 50% | < 50% | > 50% | > 50% | < 50% |
| COc1cc(-c2nc(N[C@H](C)c3ccccc3)nnc2C)cc(OC)c1OC | > 50% | < 50% | > 50% | < 50% | < 50% |
| CCCC(Nc1cncc(-c2ccc(OCCCN3CCN(C)CC3)c(OC)c2)n1)c1cccnc1 (stereo not drawn) | > 50% | < 50% | > 50% | < 50% | < 50% |
| CCCC(Nc1cncc(-c2ccc(CN3CCN(C)CC3)cc2)n1)c1ccccc1 (stereo not drawn) | > 50% | < 50% | > 50% | < 50% | < 50% |
| CCCC(Nc1cncc(-c2ccc(C(=O)NCCCCCN)c(C)c2)n1)c1cccnc1 (stereo not drawn) | > 50% | < 50% | > 50% | > 50% | < 50% |
| CCCC(Nc1cncc(-c2ccc(CN3CCC[C@H]3CO)cc2)n1)c1ccccc1 (stereo partly drawn) | > 50% | < 50% | > 50% | > 50% | < 50% |
| CCCC(Nc1cncc(-c2ccc(OCCCN3CCCC3)c(OC)c2)n1)c1cccnc1 (stereo not drawn) | > 50% | < 50% | > 50% | > 50% | < 50% |
| CCCC(Nc1cncc(-c2ccc(OCCCN3CCOCC3)c(OC)c2)n1)c1cccnc1 (stereo not drawn) | > 50% | < 50% | > 50% | < 50% | < 50% |
| CCCC(Nc1cncc(-c2ccc(OCCN(CC)CC)c(OC)c2)n1)c1cncc(C)c1 (stereo not drawn) | > 50% | < 50% | > 50% | > 50% | < 50% |
| CCCC(Nc1cncc(-c2ccc(C(=O)NCCN(C)C)cc2)n1)c1ccccc1 (stereo not drawn) | > 50% | < 50% | > 50% | < 50% | < 50% |
| CCCC(Nc1cncc(-c2ccc(CNC(=O)C3CCC(=O)N3)cc2)n1)c1ccccc1 (stereo not drawn) | > 50% | < 50% | > 50% | > 50% | < 50% |
| CCCC(Nc1cncc(-c2ccc(CN3CCCCC3)cc2)n1)c1ccccc1 (stereo not drawn) | > 50% | < 50% | > 50% | < 50% | < 50% |
| CCCC(Nc1cncc(-c2cc(OC)c(OC)c(OC)c2)c1)c1ccccc1 (stereo not drawn) | > 50% | > 50% | > 50% | > 50% | < 50% |
| CCCC(Nc1cncc(-c2ccc(CN(C)C)cc2)n1)c1ccccc1 (stereo not drawn) | > 50% | < 50% | > 50% | > 50% | < 50% |
